No end group written: not given here.
Assays:
[1] = tested on: acute mechanical pain; details: rat, pin-pain test, compared with morphine; cited from earlier work
[2] = tested on: anti-YQRFSR antibody 3RBF-SAB; assay: Competitive ELISA immuno-assay for Opiorphin; assay type: binding, rabbit; details: at 500 ng/ml final concentration
From the text: Y represents the antibody directed against Sialorphin.
The peptide was coated on the plastic support of the micro-titration plate (96-well-ImmunoPlate, Nunc).
Inter-assay variability was less than 10%.

Row | Substance | pain-suppressive potency [1] | recognition by the antibody (specificity of the immuno-assay) [2]
1 | QRFSR [Opiorphin, QRFSR] | as effective as morphine | –
2 | QHNPR (Sialorphin; UniProt P13432 29-33, looked up) | – | not recognized
